The NIST ThermoML archive (doi:10.1021/je060339m)

Conditions: Liquid

CCOC(C)=O [ethyl acetate]
Conditions | mass density [kg/m3]
298.15 K, 100 kPa | 894
298.15 K, 1000 kPa | 894.7
298.15 K, 2000 kPa | 895.7
298.15 K, 3000 kPa | 896.7
298.15 K, 3800 kPa | 897.4
298.15 K, 5000 kPa | 898.8
298.15 K, 10000 kPa | 903.4
298.15 K, 15000 kPa | 907.7
298.15 K, 20000 kPa | 912
298.15 K, 25000 kPa | 916.1
298.15 K, 30000 kPa | 921.1
298.15 K, 35000 kPa | 926.3
303.15 K, 100 kPa | 887.6
303.15 K, 1000 kPa | 888.5
303.15 K, 2000 kPa | 889.5
303.15 K, 3000 kPa | 890.5
303.15 K, 3800 kPa | 891.3
303.15 K, 5000 kPa | 892.7
303.15 K, 10000 kPa | 897.5
303.15 K, 15000 kPa | 902
303.15 K, 20000 kPa | 906.3
303.15 K, 25000 kPa | 910.7
303.15 K, 30000 kPa | 915.9
303.15 K, 35000 kPa | 921.2
308.15 K, 100 kPa | 881.4
308.15 K, 1000 kPa | 882.3
308.15 K, 2000 kPa | 883.3
308.15 K, 3000 kPa | 884.4
308.15 K, 3800 kPa | 885.3
308.15 K, 5000 kPa | 886.7
308.15 K, 10000 kPa | 891.7
308.15 K, 15000 kPa | 896.4
308.15 K, 20000 kPa | 900.9
308.15 K, 25000 kPa | 905.4
308.15 K, 30000 kPa | 910.7
308.15 K, 35000 kPa | 916.2
313.15 K, 100 kPa | 875.2
313.15 K, 1000 kPa | 876.1
313.15 K, 2000 kPa | 877.2
313.15 K, 3000 kPa | 878.3
313.15 K, 3800 kPa | 879.2
313.15 K, 5000 kPa | 880.6
313.15 K, 10000 kPa | 885.8
313.15 K, 15000 kPa | 890.7
313.15 K, 20000 kPa | 895.4
313.15 K, 25000 kPa | 899.8
313.15 K, 30000 kPa | 905.3
313.15 K, 35000 kPa | 910.9
318.15 K, 100 kPa | 868.8
318.15 K, 1000 kPa | 869.8
318.15 K, 2000 kPa | 871
318.15 K, 3000 kPa | 872.2
318.15 K, 3800 kPa | 873.1
318.15 K, 5000 kPa | 874.5
318.15 K, 10000 kPa | 880
318.15 K, 15000 kPa | 885.1
318.15 K, 20000 kPa | 889.8
318.15 K, 25000 kPa | 894.5
318.15 K, 30000 kPa | 900.1
318.15 K, 35000 kPa | 905.9
323.15 K, 100 kPa | 862.7
323.15 K, 1000 kPa | 864
323.15 K, 2000 kPa | 865.1
323.15 K, 3000 kPa | 866.2
323.15 K, 3800 kPa | 867.1
323.15 K, 5000 kPa | 868.6
323.15 K, 10000 kPa | 874.2
323.15 K, 15000 kPa | 879.4
323.15 K, 20000 kPa | 884.3
323.15 K, 25000 kPa | 889.2
323.15 K, 30000 kPa | 895
323.15 K, 35000 kPa | 900.9
328.15 K, 100 kPa | 856.4
328.15 K, 1000 kPa | 857.8
328.15 K, 2000 kPa | 859.2
328.15 K, 3000 kPa | 860.5
328.15 K, 3800 kPa | 861.5
328.15 K, 5000 kPa | 862.5
328.15 K, 10000 kPa | 868.4
328.15 K, 15000 kPa | 873.9
328.15 K, 20000 kPa | 879
328.15 K, 25000 kPa | 884.1
328.15 K, 30000 kPa | 890.1
328.15 K, 35000 kPa | 896.2
333.15 K, 100 kPa | 850.4
333.15 K, 1000 kPa | 851.7
333.15 K, 2000 kPa | 853
333.15 K, 3000 kPa | 854.4
333.15 K, 3800 kPa | 855.4
333.15 K, 5000 kPa | 856.8
333.15 K, 10000 kPa | 862.9
333.15 K, 15000 kPa | 868.5
333.15 K, 20000 kPa | 873.8
333.15 K, 25000 kPa | 879
333.15 K, 30000 kPa | 885.2
333.15 K, 35000 kPa | 891.4
338.15 K, 100 kPa | 844
338.15 K, 1000 kPa | 845.4
338.15 K, 2000 kPa | 846.8
338.15 K, 3000 kPa | 848.2
338.15 K, 3800 kPa | 849.3
338.15 K, 5000 kPa | 850.8
338.15 K, 10000 kPa | 857.1
338.15 K, 15000 kPa | 863
338.15 K, 20000 kPa | 868.5
338.15 K, 25000 kPa | 873.9
338.15 K, 30000 kPa | 880.3
338.15 K, 35000 kPa | 886.7
343.15 K, 100 kPa | 837.5
343.15 K, 1000 kPa | 839.1
343.15 K, 2000 kPa | 840.6
343.15 K, 3000 kPa | 842
343.15 K, 3800 kPa | 843.2
343.15 K, 5000 kPa | 844.5
343.15 K, 10000 kPa | 851.2
343.15 K, 15000 kPa | 857.3
343.15 K, 20000 kPa | 863
343.15 K, 25000 kPa | 868.5
343.15 K, 30000 kPa | 875.1
343.15 K, 35000 kPa | 881.6
348.15 K, 100 kPa | 829.4
348.15 K, 1000 kPa | 830.5
348.15 K, 2000 kPa | 832.3
348.15 K, 3000 kPa | 833.8
348.15 K, 3800 kPa | 835
348.15 K, 5000 kPa | 836.8
348.15 K, 10000 kPa | 845.5
348.15 K, 15000 kPa | 851.8
348.15 K, 20000 kPa | 857.7
348.15 K, 25000 kPa | 863.5
348.15 K, 30000 kPa | 870.2
348.15 K, 35000 kPa | 877
353.15 K, 1000 kPa | 824.3
353.15 K, 2000 kPa | 826
353.15 K, 3000 kPa | 827.5
353.15 K, 3800 kPa | 828.8
353.15 K, 5000 kPa | 830.6
353.15 K, 10000 kPa | 837.7
353.15 K, 15000 kPa | 844.3
353.15 K, 20000 kPa | 850.4
353.15 K, 25000 kPa | 856.1
353.15 K, 30000 kPa | 862.7
353.15 K, 35000 kPa | 869.6
358.15 K, 1000 kPa | 818.4
358.15 K, 2000 kPa | 820
358.15 K, 3000 kPa | 821.6
358.15 K, 3800 kPa | 822.8
358.15 K, 5000 kPa | 824.7
358.15 K, 10000 kPa | 832.1
358.15 K, 15000 kPa | 838.9
358.15 K, 20000 kPa | 845.2
358.15 K, 25000 kPa | 851
358.15 K, 30000 kPa | 857.6
358.15 K, 35000 kPa | 864.7
363.15 K, 1000 kPa | 811.8
363.15 K, 2000 kPa | 813.5
363.15 K, 3000 kPa | 815.3
363.15 K, 3800 kPa | 816.6
363.15 K, 5000 kPa | 818.5
363.15 K, 10000 kPa | 826.3
363.15 K, 15000 kPa | 833.3
363.15 K, 20000 kPa | 839.7
363.15 K, 25000 kPa | 845.8
363.15 K, 30000 kPa | 852.9
363.15 K, 35000 kPa | 860.2
368.15 K, 1000 kPa | 804.9
368.15 K, 2000 kPa | 806.8
368.15 K, 3000 kPa | 808.6
368.15 K, 3800 kPa | 810
368.15 K, 5000 kPa | 812.1
368.15 K, 10000 kPa | 820.2
368.15 K, 15000 kPa | 827.5
368.15 K, 20000 kPa | 834.3
368.15 K, 25000 kPa | 840.6
368.15 K, 30000 kPa | 848
368.15 K, 35000 kPa | 855.5
373.15 K, 1000 kPa | 798.5
373.15 K, 2000 kPa | 800.4
373.15 K, 3000 kPa | 802.4
373.15 K, 3800 kPa | 803.8
373.15 K, 5000 kPa | 806
373.15 K, 10000 kPa | 814.4
373.15 K, 15000 kPa | 822
373.15 K, 20000 kPa | 829
373.15 K, 25000 kPa | 835.5
373.15 K, 30000 kPa | 843
373.15 K, 35000 kPa | 850.6
378.15 K, 1000 kPa | 791.8
378.15 K, 2000 kPa | 793.8
378.15 K, 3000 kPa | 795.8
378.15 K, 3800 kPa | 797.3
378.15 K, 5000 kPa | 799.6
378.15 K, 10000 kPa | 808.5
378.15 K, 15000 kPa | 816.5
378.15 K, 20000 kPa | 823.7
378.15 K, 25000 kPa | 830.5
378.15 K, 30000 kPa | 838.4
378.15 K, 35000 kPa | 846.3
383.15 K, 1000 kPa | 784.8
383.15 K, 2000 kPa | 787.1
383.15 K, 3000 kPa | 789.1
383.15 K, 3800 kPa | 790.8
383.15 K, 5000 kPa | 793.2
383.15 K, 10000 kPa | 802.4
383.15 K, 15000 kPa | 810.7
383.15 K, 20000 kPa | 818.2
383.15 K, 25000 kPa | 825.3
383.15 K, 30000 kPa | 833.5
383.15 K, 35000 kPa | 841.6
388.15 K, 1000 kPa | 778.2
388.15 K, 2000 kPa | 780.5
388.15 K, 3000 kPa | 782.7
388.15 K, 3800 kPa | 784.4
388.15 K, 5000 kPa | 786.9
388.15 K, 10000 kPa | 796.4
388.15 K, 15000 kPa | 805.1
388.15 K, 20000 kPa | 813
388.15 K, 25000 kPa | 820.3
388.15 K, 30000 kPa | 828.8
388.15 K, 35000 kPa | 837.2
393.15 K, 1000 kPa | 771
393.15 K, 2000 kPa | 773.5
393.15 K, 3000 kPa | 775.9
393.15 K, 3800 kPa | 777.7
393.15 K, 5000 kPa | 780.4
393.15 K, 10000 kPa | 790.5
393.15 K, 15000 kPa | 799.4
393.15 K, 20000 kPa | 807.6
393.15 K, 25000 kPa | 815.2
393.15 K, 30000 kPa | 823.9
393.15 K, 35000 kPa | 832.4
